Patent US20030203404A1, “Bioluminescence resonance energy transfer( bret) system with broad spectral resolution between donor and acceptor emission wavelengths and its use” (priority 1999, published 2003)
Like-named read-outs stand apart in the source and are kept apart here. Values belong to the compound of their own block, whether it stands above or below them.

How the values were obtained:
[1] = Coelenterazine 400a stock solution stability (luminescence with CHO cells expressing Rluc, BRETCount); type: physicochemical
Experimental: Coelenterazine stability: Three different stock solutions of coelenterazine 400a (dissolved in anhydrous ethanol), prepared at different times, were tested using the BRETCount. CHO cells were transiently transfected with pcDNA3.1-Rluc only. Forty-eight hours later, 50 000 cells in complete BRET buffer were distributed in wells (96-well white Optiplate). Coelenterazine 400a from the various stocks were then added to start the bioluminescent reaction. […] A reduction of 22% is observed for the older stock (made Feb. 19, 1999) compared to a stock freshly made (Aug. 6, 1999). […].
FIG. 9 represents the same bioluminescent reactions as in FIG. 8 but at t=5 min after addition of the coelenterazines. In this case no significant difference was observed between the various coelenterazine stocks.
Coel400a stored for a longer period of time (6 months), does show a loss of potential but it remains acceptable and workable for the BRET system.

[2] = tested on: HeLa cells transfected with the GFP1:Caspase-3:Rluc sensor; assay: BRET apoptosis sensor assay; type: cell-based; settings: staurosporine 1 μM, 5 hours
Experimental: PGFP1:caspase-3:Rluc DNAs and the original plasmid pGFP1::Rluc (without the caspase-3 site) were transfected into HeLa cell using LipofectAMINE (BRL/Gibco-Life technologies) in 100 mm dishes and 8 μg of plasmid DNA as described in the manufacturer's protocol. Twenty-four hours post-transfection transfected cells were harvested and distributed into 96-well microtiterplate (white Optiplate from Packard) at a density of 30 000 cells per well. […] Cells were incubated for 5 hours at 37° C. After this period, 50 μl of BRET buffer (PBS Ca^2+/Mg^2++glucose without aprotinin) and 50 μl of DeepBlueC (20 μM) were added to start the bioluminescence reaction. Total assay volume was 200 μl. Light emissions were detected using the BRETCount (read length of 1 sec. for each filter, SPC mode, temperature 25° C.).

V2-R = V2-R (Homo sapiens, UniProt P30518); settings: AVP 50 nM, 20 minutes
Experimental: BRET assays: HEK293 cell line were transiently co-transfected using the donor and acceptor fusion construct DNAs and LipofectAMINE 2000 (Life Technologies) in 100 mm dishes as described in the manufacturer's protocol. For the transfections, a DNA ratio of 4 μg:46 μg (donor fusion construct: acceptor fusion construct) was used. The donor fusion constructs were the V2-R:Rluc (h) fusion constructs and the acceptor fusion construct was either the pcDNA3.1hyg/GFP1:β-arrestin2 or the pcDNA3.1hyg/β-arrestin2:GFP1. […] Fifty thousand transfected cells per well were added to white 96-well plates (Optiplate, Packard Instrument Company). […] Cells were then incubated for 20 minutes at room temperature in a total volume of 37.5 μl. After the incubation period, 12.5 μl of DeepBlueC at 20 μM (also called Coel400a) was added in each well (final concentration of 5 μM). Final assay volume was 50 μl. Donor and acceptor light outputs were quantified with the Fusion microtiterplate analyzer (Packard Instrument Company) using the following instrument setting:
Read length: 1 sec per well per filter.
Results represent the mean+/−SEM of quadruplicate wells. […] In all cases, background levels (wells with only DBC in PBS+) were subtracted.

V2 receptor = V2 receptor (Homo sapiens, UniProt P30518); settings: saturating dose, V2-Rluc + β-arrestin2-GFP, FIG. 22
Experimental: The Rluc (BDP) was fused to the C-terminus of the GPCR and the GFP (FAM) was fused to the C-terminus of β-arrestin. Therefore, shortly after ligand binding (5-30 minutes) the BRET ratio should increase due to binding of β-arrestin to the GPCR, which brings the GFP in proximity to Rluc.
HEK293 cell line were transiently transfected using the DNA constructs and LipofectAMINE™ 2000 (BRL/Gibco) in 100 mm dishes as described in the manufacturer's protocol. […] Bioluminescent reactions were analysed using the BRETCount with appropriate filters.
Transfected cells were added (50 000 cells (in BRET buffer) per well) to the wells in white 96-well plates (Optiplate, Packard Instrument). […] In the other half, BRET buffer, alone, was added. Cells were then incubated for 10-20 minutes at room temperature before adding the coel400a. The analysis was performed at 25° C., integration time 2 sec per wavelength in luminescence mode. The filters used were: for Rluc emission 410DF80 (from Omega); for GFP D515/50M (from Chroma). Coel400a, at a working concentration of 40 μM (final 5 μM), was added to each well to start the bioluminescent reaction. The final reaction volume was 50 μl. Assays were done in quadruplicate.
For all fusion constructs, a 6 amino acid linker was inserted, between the Rluc or GFP and the receptor (β2, β3 or V2) or β-arrestin2. […]

- reduction of luminescent signal immediately after addition of the substrate ([1]; stock in anhydrous ethanol made Feb. 19, 1999 compared to stock freshly made (Aug. 6, 1999)): 22%
Compound: O=c1c(Cc2ccccc2)nc2c(Cc3ccccc3)[nH]c(-c3ccccc3)cn1-2 [Coelenterazine 400a, phenylcoelenterazine]
- luminescence reduction immediately after addition of the substrate ([1]; stock in anhydrous ethanol made Jul. 22, 1999 compared to stock freshly made (Aug. 6, 1999)): did not demonstrate significant luminescence reduction

Compound: CN[C@@H]1C[C@H]2O[C@@](C)([C@@H]1OC)n1c3ccccc3c3c4c(c5c6ccccc6n2c5c31)C(=O)NC4 [staurosporine]
- BRET ratio change (decrease) ([2]; cells transfected with pGFP1:caspase-3:Rluc, time zero): 0.72 unit
- change in BRET ratio ([2]; cells transfected with pGFP::Rluc (without the caspase-3 site)): No change

Compound: Arg^8-vasopressin [AVP]
- BRET signal in presence of AVP (V2-R; V2-R:Rluc + GFP1:β-arrestin2, 10 min after DeepBlueC): 0.129
- BRET signal in presence of AVP (V2-R; V2-R:Rluc + β-arrestin2:GFP1, 10 min after DeepBlueC): 0.087
- BRET ratio in the presence of the agonist (V2 receptor): increased
